# From patent US10829798B2, “DNA-linked enzyme-coupled assays” (THE REGENTS OF THE UNIVERSITY OF CALIFORNIA, priority 2014, dated 2020)
# Assays:
# [1] = molecular target: T1, OleD (Streptomyces antibioticus, UniProt Q53685, P55A/R82V/R83E/T84P); assay: FRET DLEnCA, cell-free transcription/translation-derived OleD, fluorescence readout; format: biochemical; details: all components present; chemical 1 mM, UDP-Glc 5 μM, FRET probe 250 nM
# T1 construct: made in house; host or cells: PURExpress In Vitro Protein Synthesis Kit (NEB E6800L), cell-free transcription/translation, linear DNA with T7 promoter
# T1 sequence (Q53685 other isoform, or with tags, fused parts or gaps P55A/R82V/R83E/T84P): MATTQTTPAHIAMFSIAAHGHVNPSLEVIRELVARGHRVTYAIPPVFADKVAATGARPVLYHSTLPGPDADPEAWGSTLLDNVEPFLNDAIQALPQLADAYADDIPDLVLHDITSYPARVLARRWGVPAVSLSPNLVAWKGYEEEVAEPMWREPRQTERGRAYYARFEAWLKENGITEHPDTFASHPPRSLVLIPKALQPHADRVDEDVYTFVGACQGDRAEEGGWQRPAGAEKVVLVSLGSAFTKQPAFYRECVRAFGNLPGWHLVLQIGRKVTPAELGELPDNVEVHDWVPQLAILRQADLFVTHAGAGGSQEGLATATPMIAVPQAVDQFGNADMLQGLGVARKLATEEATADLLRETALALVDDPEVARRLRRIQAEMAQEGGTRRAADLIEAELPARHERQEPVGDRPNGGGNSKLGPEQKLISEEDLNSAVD
# Protocol: FIG. 3A-FIG. 3D. DNA-Linked Enzyme-Coupled Assay using cell-free transcription/translation system. A. UDP-Glc was titrated into reactions containing 250 nM FRET probe, TbGT, and a cell-free transcription/translation system. After 3 hours incubation at 37° C., probe was digested with MfeI and resulting digests were analyzed using fluorescent spectrometry (n=6, error bars=standard error). B. DNA encoding OleD (5 nM) was incubated in a cell-free transcription/translation system for 3 hours at 37° C., followed by the addition of UDP-Glucose (5 μM) and kaempferol (1 mM). After a subsequent incubation of 3 hours, TbGT and FRET probe (250 nM) were added. Following MfeI addition, fluorescence formation was monitored using fluorometry. […] Digests were analyzed using qPCR. […]
# Assays were performed using 250 nM fluorescent probe (Sequence provided in FIG. 21) in place of the linear probe. Fluorescence was detected using a Tecan Safire^2 using the following settings: excitation wavelength 550 nm, emission wavelength 564 nm, excitation bandwidth 5 nm, emission bandwidth 5 nm, Gain (manual) 120, Number of reads 10, FlashMode High Sensitivity, Integration time 100 μs, lag time 0 μs, Z-position 12000 μm, Temperature 37° C. Development of fluorescence after MfeI addition was monitored over an 8 hour period. […]
# [2] = molecular target: T1, OleD; assay: qPCR DLEnCA, cell-free transcription/translation-derived OleD; format: biochemical
# Protocol: FIG. 4A-FIG. 4D. qPCR DLEnCA and substrate specificity studies. A. Chemicals used as substrates in subsequent assays: (i) known substrates of OleD; (ii) flavone library; (iii) known substrates of GT05 (UGT72B1 (Q9M156)) and GT06 (UGT89B1 (AT1 G73880)). B. DNA encoding OleD (5 nM) was incubated in a cell-free transcription/translation system for 3 hours at 37° C., followed by the addition of chemical (1 mM) and UDP-Glc (2 μM). After a subsequent incubation of 3 hours, TbGT and probe (0.2 nM) were added. After probe purification and MfeI digestion, probe integrity was identified using qPCR. Percent recovery of probe is reported (n=8; error bars=standard error). C. DNA encoding OleD (5 nM) was incubated for 3 hours at 37° C. in a cell-free transcription/translation system, followed by the addition of flavone (1 mM) and UDP-Glc (2 μM). After a subsequent incubation of 3 hours, TbGT and probe (0.2 nM) were added. After probe purification and MfeI addition, probe integrity was identified using qPCR. Percent recovery of probe is reported (n=8; error bars=standard error). D. DNA encoding OleD, GT05, or GT06 (5 nM) were incubated for 3 hours at 37° C. in a cell-free transcription/translation system, followed by the addition of chemical (1 mM) and UDP-Glc (2 μM). After a subsequent incubation of 3 hours, TbGT and probe (0.2 nM) were added. After probe purification and MfeI digestion, probe integrity was identified using qPCR. Percent recovery of probe is reported as a heat map (n=8) (specific recovery figures and percent error can be found in FIG. 16). *=p<0.05 vs. no chemical control.
# PCR tubes were used for most reactions. All incubations were performed at 37° C. Assays were initiated upon the addition of linear DNA (5 nM final concentration) to 4 μl PURExpress Solution A and 3 μl PURExpress Solution B. Samples were incubated at 37° C. for 3 hours prior to addition of UDP-Glucose and chemical (1 mM final concentration) in DMSO. Samples were incubated for an additional 3 hours prior to addition of 1 unit T4 Phage β-glucosyltransferase containing 0.2 nM probe. Samples were incubated an additional 3 hours before DNA was purified using the Zymo DNA Clean and Concentrator Kit. Samples were digested overnight with MfeI prior to analysis. Concentration of intact DNA probe was identified using the iQ SYBR Green Supermix (1708880) with probe DNA as standards. qPCR was carried out on the Bio-Rad iQ5 Multicolor Real-Time PCR Detection System using primers P13 and P14 with the following temperatures; 94° C. 30 seconds followed by 40 cycles of 94° C. 10 seconds and 55° C. for 30 seconds. All results were compared to uncut probe DNA that had been carried through the process as negative controls (considered full recovery of probe).
# The second DLEnCA workflow developed involved qPCR as a final readout (qPCR DLEnCA, FIG. 1—qPCR workflow). A linear fragment of DNA was modified to contain 5-hm-cytosines throughout. To determine a threshold for probe protection under conditions amenable to the qPCR DLEnCA workflow, UDP-Glc was titrated into mixtures of the cell-free transcription/translation system containing 5-hm-cytosine-modified DNA probe (0.2 nM probe DNA containing 0.1 μM modified 5-hm-cytosines) and TbGT. After digestion with the restriction enzyme MfeI, the amount of intact DNA probe was determined using qPCR (FIG. 3C). […] A threshold for protection was identified at a 20:1 molar ratio of UDP-Glc to total 5-hm-cytosine in probe DNA; this UDP-Glc amount was used as the starting concentration of UDP-Glc for all qPCR experiments. To test the feasibility of qPCR DLEnCA, OleD was again tested upon the substrate kaempferol (FIG. 3D), using DNA encoding a promoter and OleD as starting material. As expected, when all components of the assay were present, 27% of intact probe DNA was recovered. […]
smiles,measurement,setting,value
"O=c1c(O)c(-c2ccc(O)cc2)oc2cc(O)cc(O)c12 [I, kaempferol]",fluorescent reading after MfeI digestion of FRET probe,[1],50 RFU
same,recovery of intact probe DNA,"[2]; OleD DNA 5 nM, chemical 1 mM, UDP-Glc 2 μM, probe 0.2 nM, low recovery = substrate glucosylated",27%
same,activity of OleD with chemical,"[2]; tested against I, X, XI, XII, qPCR DLEnCA, verified with LCMS",showed activity
